Measurements: the supplement of paper PMC12463676, “Small-molecule dissolution of stress granules by redox modulation benefits ALS models” (Nature Chemical Biology, 2025)

Experiments:
lipoamide = compound: NC(=O)CCCCC1CCSS1 [lipoamide]; assay: thermal stability z-score vs DMSO; higher = more thermally stabilized by treatment; conditions: HeLa, lipoamide concentration 100 µM
Protocol: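 Cellular thermal proteome profiling in HeLa cells. Cells were treated with 100 µM lipoamide for 1 h, with or without 1 mM arsenate for a further 1 h, then heated to ten temperatures (37-66.3 °C), and soluble protein was quantified by TMT mass spectrometry relative to 0.1% DMSO controls. The thermal stability score (sum of log2 fold changes minus the abundance score) was transformed to a z-score; mean of n = 3 experiments.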

potassium arsenate = compound: O=[As]([O-])(O)O.[K+] [potassium arsenate]; assay: as above; conditions: HeLa; arsenate concentration 1 mM
Protocol: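 Cellular thermal proteome profiling in HeLa cells treated with 1 mM arsenate for 1 h (DMSO pretreatment), heated to ten temperatures (37-66.3 °C). Soluble protein was quantified by TMT mass spectrometry relative to DMSO controls; the thermal stability score was transformed to a z-score; mean of n = 3 experiments.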

[1] = arsenate co-treatment: 1 mM arsenate 1 h
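Note: each temperature applied for 3 min, abundance score taken as mean log2 fold change at the two lowest temperatures, z-score obtained by mean subtraction and division by SD.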

Chain of UniProt P62633 (P62633 whole entry): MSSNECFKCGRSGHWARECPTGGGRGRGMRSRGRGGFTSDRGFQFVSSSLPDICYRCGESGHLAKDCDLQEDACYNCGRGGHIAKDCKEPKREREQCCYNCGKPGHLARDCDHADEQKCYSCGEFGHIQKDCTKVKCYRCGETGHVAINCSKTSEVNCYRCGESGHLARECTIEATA
Chain of UniProt Q99439 (Q99439 whole entry): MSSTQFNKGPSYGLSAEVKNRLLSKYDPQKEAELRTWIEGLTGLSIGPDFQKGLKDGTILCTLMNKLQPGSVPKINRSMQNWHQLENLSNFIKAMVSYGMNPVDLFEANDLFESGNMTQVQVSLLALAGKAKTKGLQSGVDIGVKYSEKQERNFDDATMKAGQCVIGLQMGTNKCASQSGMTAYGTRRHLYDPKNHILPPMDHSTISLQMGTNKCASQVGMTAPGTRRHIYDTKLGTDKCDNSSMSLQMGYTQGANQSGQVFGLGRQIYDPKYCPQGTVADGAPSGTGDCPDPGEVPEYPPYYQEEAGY
Chain of UniProt Q6P4Q7 (Q6P4Q7 whole entry): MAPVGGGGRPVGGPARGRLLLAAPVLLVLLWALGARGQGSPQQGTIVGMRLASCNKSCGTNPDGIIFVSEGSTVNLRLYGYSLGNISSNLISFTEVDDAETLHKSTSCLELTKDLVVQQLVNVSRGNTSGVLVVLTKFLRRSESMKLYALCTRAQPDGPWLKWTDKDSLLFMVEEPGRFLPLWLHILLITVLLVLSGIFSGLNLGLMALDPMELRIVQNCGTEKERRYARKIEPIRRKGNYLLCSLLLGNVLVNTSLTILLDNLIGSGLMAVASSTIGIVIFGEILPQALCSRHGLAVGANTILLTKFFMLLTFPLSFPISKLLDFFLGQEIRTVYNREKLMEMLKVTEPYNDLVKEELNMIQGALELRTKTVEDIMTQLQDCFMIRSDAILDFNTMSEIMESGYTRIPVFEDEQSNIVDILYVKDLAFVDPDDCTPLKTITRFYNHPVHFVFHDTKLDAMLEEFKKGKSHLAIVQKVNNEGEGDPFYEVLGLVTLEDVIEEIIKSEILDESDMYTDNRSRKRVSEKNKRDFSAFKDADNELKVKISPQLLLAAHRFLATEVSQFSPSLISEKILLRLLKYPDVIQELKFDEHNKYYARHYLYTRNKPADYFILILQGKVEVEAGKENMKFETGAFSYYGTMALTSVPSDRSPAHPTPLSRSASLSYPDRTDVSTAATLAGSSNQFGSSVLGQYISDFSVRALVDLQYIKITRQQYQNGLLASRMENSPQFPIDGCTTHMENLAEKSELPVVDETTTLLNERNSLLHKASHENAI
Chain of UniProt P09543 (P09543 whole entry): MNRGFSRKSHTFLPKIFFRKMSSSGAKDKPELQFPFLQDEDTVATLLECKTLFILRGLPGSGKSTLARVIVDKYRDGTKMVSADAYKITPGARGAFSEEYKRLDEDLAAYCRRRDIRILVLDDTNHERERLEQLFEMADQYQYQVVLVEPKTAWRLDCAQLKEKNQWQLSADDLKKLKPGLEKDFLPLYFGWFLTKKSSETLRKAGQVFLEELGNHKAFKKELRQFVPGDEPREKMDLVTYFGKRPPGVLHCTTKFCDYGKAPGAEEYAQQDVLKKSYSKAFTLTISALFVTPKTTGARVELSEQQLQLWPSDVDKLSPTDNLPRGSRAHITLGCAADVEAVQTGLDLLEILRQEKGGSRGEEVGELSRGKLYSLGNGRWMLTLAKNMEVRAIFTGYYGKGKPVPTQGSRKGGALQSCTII
Chain of UniProt Q8WTW3 (Q8WTW3 whole entry): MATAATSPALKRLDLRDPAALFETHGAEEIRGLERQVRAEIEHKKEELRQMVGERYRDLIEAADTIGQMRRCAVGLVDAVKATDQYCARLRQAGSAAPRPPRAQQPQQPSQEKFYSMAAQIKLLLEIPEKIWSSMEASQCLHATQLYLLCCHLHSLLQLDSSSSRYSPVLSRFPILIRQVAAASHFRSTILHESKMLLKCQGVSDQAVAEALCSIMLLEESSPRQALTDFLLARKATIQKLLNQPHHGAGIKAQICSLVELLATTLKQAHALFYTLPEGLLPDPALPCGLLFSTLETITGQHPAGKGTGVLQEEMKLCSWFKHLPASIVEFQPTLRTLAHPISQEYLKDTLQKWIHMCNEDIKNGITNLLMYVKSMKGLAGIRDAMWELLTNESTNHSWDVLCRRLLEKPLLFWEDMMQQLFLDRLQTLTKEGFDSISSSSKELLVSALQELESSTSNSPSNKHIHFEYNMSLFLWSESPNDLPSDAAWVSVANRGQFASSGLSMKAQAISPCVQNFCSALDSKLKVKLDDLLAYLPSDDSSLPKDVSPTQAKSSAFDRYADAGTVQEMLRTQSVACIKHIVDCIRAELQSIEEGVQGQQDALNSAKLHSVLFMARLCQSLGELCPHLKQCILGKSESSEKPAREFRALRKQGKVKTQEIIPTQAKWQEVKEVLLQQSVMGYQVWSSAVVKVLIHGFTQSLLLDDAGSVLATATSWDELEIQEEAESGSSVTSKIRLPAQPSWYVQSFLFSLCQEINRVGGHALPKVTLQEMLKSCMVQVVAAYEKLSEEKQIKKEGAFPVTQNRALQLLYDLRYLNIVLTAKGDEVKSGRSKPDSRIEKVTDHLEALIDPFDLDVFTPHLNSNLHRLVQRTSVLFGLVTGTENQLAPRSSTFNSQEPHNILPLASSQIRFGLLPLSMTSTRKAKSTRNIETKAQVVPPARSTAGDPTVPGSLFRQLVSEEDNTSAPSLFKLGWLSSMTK
Chain of UniProt Q8IYT2 (Q8IYT2 whole entry): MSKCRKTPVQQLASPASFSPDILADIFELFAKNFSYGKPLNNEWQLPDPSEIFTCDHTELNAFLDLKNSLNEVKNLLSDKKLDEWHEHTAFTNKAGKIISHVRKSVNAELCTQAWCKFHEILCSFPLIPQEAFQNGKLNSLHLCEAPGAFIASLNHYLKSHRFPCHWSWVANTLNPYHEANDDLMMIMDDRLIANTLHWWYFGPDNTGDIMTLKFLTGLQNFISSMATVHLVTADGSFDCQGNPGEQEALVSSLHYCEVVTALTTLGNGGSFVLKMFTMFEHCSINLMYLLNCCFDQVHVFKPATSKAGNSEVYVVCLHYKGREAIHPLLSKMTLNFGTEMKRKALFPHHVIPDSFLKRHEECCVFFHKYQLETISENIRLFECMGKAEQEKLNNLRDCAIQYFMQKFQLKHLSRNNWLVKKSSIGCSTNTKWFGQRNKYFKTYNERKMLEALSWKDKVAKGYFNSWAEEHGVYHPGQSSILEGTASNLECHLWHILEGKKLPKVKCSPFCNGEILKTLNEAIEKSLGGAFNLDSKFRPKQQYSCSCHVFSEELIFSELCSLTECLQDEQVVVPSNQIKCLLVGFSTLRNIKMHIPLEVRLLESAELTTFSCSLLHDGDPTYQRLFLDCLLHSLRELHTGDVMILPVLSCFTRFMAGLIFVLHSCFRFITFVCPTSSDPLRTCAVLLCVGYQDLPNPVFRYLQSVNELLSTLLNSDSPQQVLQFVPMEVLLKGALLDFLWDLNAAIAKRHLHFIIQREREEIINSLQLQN
Chain of UniProt Q8N129 (Q8N129 whole entry): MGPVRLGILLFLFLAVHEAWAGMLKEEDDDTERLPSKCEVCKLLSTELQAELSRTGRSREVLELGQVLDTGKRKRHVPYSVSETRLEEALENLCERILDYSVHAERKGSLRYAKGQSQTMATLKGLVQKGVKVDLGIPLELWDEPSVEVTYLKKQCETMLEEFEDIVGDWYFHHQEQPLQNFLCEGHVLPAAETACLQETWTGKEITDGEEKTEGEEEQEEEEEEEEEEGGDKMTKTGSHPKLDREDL
Chain of UniProt Q9H9E3 (Q9H9E3 whole entry): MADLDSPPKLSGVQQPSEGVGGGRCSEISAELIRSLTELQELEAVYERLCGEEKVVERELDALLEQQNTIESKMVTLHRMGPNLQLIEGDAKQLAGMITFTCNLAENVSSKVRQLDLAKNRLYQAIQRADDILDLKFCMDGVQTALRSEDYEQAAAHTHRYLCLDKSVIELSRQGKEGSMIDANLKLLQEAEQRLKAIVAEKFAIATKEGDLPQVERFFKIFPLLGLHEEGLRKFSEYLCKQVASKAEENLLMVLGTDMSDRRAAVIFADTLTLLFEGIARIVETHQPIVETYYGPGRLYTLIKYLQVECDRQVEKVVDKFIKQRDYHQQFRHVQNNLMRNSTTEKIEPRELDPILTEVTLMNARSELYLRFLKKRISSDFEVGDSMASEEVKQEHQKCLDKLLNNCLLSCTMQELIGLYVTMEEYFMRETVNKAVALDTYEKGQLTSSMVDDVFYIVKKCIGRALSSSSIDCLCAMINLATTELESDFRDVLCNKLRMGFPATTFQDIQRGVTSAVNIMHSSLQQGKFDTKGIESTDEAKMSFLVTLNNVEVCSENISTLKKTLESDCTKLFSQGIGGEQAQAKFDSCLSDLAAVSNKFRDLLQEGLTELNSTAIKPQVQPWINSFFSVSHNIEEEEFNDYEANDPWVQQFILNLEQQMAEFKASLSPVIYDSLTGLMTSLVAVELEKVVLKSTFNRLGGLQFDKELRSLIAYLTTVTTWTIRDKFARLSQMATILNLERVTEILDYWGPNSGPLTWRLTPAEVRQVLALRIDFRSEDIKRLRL
Chain of UniProt Q96BR5 (Q96BR5 whole entry): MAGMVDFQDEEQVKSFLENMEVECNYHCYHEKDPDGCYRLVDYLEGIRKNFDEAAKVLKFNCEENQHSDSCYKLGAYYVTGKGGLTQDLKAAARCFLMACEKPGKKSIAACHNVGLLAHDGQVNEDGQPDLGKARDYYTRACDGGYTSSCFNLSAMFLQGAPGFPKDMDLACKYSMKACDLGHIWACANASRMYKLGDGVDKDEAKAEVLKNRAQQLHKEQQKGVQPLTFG
Chain of UniProt Q9UIV1 (Q9UIV1 whole entry): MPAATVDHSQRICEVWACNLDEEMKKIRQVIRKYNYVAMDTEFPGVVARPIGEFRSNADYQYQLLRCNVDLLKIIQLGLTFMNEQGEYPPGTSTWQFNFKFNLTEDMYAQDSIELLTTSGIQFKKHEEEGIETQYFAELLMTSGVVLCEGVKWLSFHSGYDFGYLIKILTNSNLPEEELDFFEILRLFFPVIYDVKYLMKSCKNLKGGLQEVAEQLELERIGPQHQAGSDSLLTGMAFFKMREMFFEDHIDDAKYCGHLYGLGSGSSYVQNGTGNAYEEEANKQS

CMIP (UniProt Q8IY22) gave a thermal stability z-score (lipoamide; [1]) of -0.151, a thermal stability z-score (lipoamide; arsenate co-treatment: none) of -0.146 and a thermal stability z-score (potassium arsenate) of -0.236.

With CMPK1 (UniProt P30085) the thermal stability z-score (lipoamide; [1]) was -0.127, the thermal stability z-score (lipoamide; arsenate co-treatment: none) was 0.136 and the thermal stability z-score (potassium arsenate) was 2.02.

Target CMSS1 (UniProt Q9BQ75) has a thermal stability z-score (lipoamide; [1]) of 0.27, a thermal stability z-score (lipoamide; arsenate co-treatment: none) of 0.0303 and a thermal stability z-score (potassium arsenate) of -2.12.

Target CMTR1 (UniProt Q8N1G2) has a thermal stability z-score (lipoamide; [1]) of -0.292, a thermal stability z-score (lipoamide; arsenate co-treatment: none) of 0.406 and a thermal stability z-score (potassium arsenate) of 1.15.

Target CMTR2 (UniProt Q8IYT2) has a thermal stability z-score (lipoamide; [1]) of 0.107, a thermal stability z-score (lipoamide; arsenate co-treatment: none) of 0.13 and a thermal stability z-score (potassium arsenate) of -0.0808.

With CNBP (UniProt P62633) the thermal stability z-score (lipoamide; [1]) was 0.317, the thermal stability z-score (lipoamide; arsenate co-treatment: none) was 0.142 and the thermal stability z-score (potassium arsenate) was -0.088.

Work on CNDP2 (UniProt Q96KP4) yielded a thermal stability z-score (lipoamide; [1]) of 0.517, a thermal stability z-score (lipoamide; arsenate co-treatment: none) of 0.0712 and a thermal stability z-score (potassium arsenate) of 0.248.

For CNN2 (UniProt Q99439), the thermal stability z-score (lipoamide; [1]) was 0.281, the thermal stability z-score (lipoamide; arsenate co-treatment: none) was 0.653 and the thermal stability z-score (potassium arsenate) was 0.356.

CNNM2 (UniProt Q9H8M5) was tested, and the thermal stability z-score (lipoamide; [1]) was 0.397, the thermal stability z-score (lipoamide; arsenate co-treatment: none) was 0.656 and the thermal stability z-score (potassium arsenate) was -0.152.

Target CNNM3 (UniProt Q8NE01) has a thermal stability z-score (lipoamide; [1]) of -0.728, a thermal stability z-score (lipoamide; arsenate co-treatment: none) of 0.192 and a thermal stability z-score (potassium arsenate) of -0.561.

CNNM4 (UniProt Q6P4Q7) was tested, and the thermal stability z-score (lipoamide; [1]) was 0.923, the thermal stability z-score (lipoamide; arsenate co-treatment: none) was 0.49 and the thermal stability z-score (potassium arsenate) was 0.213.

Target CNOT1 (UniProt A5YKK6) has a thermal stability z-score (lipoamide; [1]) of -0.186, a thermal stability z-score (lipoamide; arsenate co-treatment: none) of 0.0688 and a thermal stability z-score (potassium arsenate) of 1.04.

In the case of CNOT2 (UniProt Q9NZN8), the thermal stability z-score (lipoamide; [1]) is reported as -0.563, the thermal stability z-score (lipoamide; arsenate co-treatment: none) is reported as 0.153 and the thermal stability z-score (potassium arsenate) is reported as 1.62.

CNOT3 (UniProt O75175) showed a thermal stability z-score (lipoamide; [1]) of -0.0612, a thermal stability z-score (lipoamide; arsenate co-treatment: none) of 0.0363 and a thermal stability z-score (potassium arsenate) of 1.26.

CNOT4 (UniProt O95628) was tested, and the thermal stability z-score (lipoamide; [1]) was -0.171, the thermal stability z-score (lipoamide; arsenate co-treatment: none) was -0.00856 and the thermal stability z-score (potassium arsenate) was 0.494.

CNOT6 (UniProt Q9ULM6) gave a thermal stability z-score (lipoamide; [1]) of -0.197, a thermal stability z-score (lipoamide; arsenate co-treatment: none) of -0.108 and a thermal stability z-score (potassium arsenate) of 0.03.

Target CNOT7 (UniProt Q9UIV1) has a thermal stability z-score (lipoamide; [1]) of -0.248, a thermal stability z-score (lipoamide; arsenate co-treatment: none) of 0.895 and a thermal stability z-score (potassium arsenate) of 1.32.

CNOT10 (UniProt Q9H9A5) was tested, and the thermal stability z-score (lipoamide; [1]) was -0.532, the thermal stability z-score (lipoamide; arsenate co-treatment: none) was 0.228 and the thermal stability z-score (potassium arsenate) was 0.677.

Work on CNOT11 (UniProt Q9UKZ1) yielded a thermal stability z-score (lipoamide; [1]) of -0.0705, a thermal stability z-score (lipoamide; arsenate co-treatment: none) of 0.0824 and a thermal stability z-score (potassium arsenate) of 0.0729.

CNP (UniProt P09543) was tested, and the thermal stability z-score (lipoamide; [1]) was 1.14, the thermal stability z-score (lipoamide; arsenate co-treatment: none) was 0.855 and the thermal stability z-score (potassium arsenate) was -0.287.

In the case of CNPY3 (UniProt Q9BT09), the thermal stability z-score (lipoamide; [1]) is reported as -4.03, the thermal stability z-score (lipoamide; arsenate co-treatment: none) is reported as -4.98 and the thermal stability z-score (potassium arsenate) is reported as -0.0267.

Target CNPY4 (UniProt Q8N129) has a thermal stability z-score (lipoamide; [1]) of -1.84, a thermal stability z-score (lipoamide; arsenate co-treatment: none) of -1.57 and a thermal stability z-score (potassium arsenate) of 0.532.

In the case of CNTLN (UniProt Q9NXG0), the thermal stability z-score (lipoamide; [1]) is reported as -0.163, the thermal stability z-score (lipoamide; arsenate co-treatment: none) is reported as -0.342 and the thermal stability z-score (potassium arsenate) is reported as -0.0711.

COA1 (UniProt Q9GZY4) showed a thermal stability z-score (lipoamide; [1]) of 0.229, a thermal stability z-score (lipoamide; arsenate co-treatment: none) of 0.587 and a thermal stability z-score (potassium arsenate) of 0.234.

COA3 (UniProt Q9Y2R0) showed a thermal stability z-score (lipoamide; [1]) of 0.463, a thermal stability z-score (lipoamide; arsenate co-treatment: none) of 0.725 and a thermal stability z-score (potassium arsenate) of 0.126.

In the case of COA5 (UniProt Q86WW8), the thermal stability z-score (lipoamide; [1]) is reported as -0.51, the thermal stability z-score (lipoamide; arsenate co-treatment: none) is reported as -0.761 and the thermal stability z-score (potassium arsenate) is reported as 0.0388.

COA6 (UniProt Q5JTJ3) gave a thermal stability z-score (lipoamide; [1]) of 1.7, a thermal stability z-score (lipoamide; arsenate co-treatment: none) of 1.85 and a thermal stability z-score (potassium arsenate) of 0.756.

For COA7 (UniProt Q96BR5), the thermal stability z-score (lipoamide; [1]) was 0.203, the thermal stability z-score (lipoamide; arsenate co-treatment: none) was 0.0661 and the thermal stability z-score (potassium arsenate) was -0.364.

Work on COASY (UniProt Q13057) yielded a thermal stability z-score (lipoamide; [1]) of -0.525, a thermal stability z-score (lipoamide; arsenate co-treatment: none) of -0.09 and a thermal stability z-score (potassium arsenate) of 0.944.

COBL (UniProt O75128) showed a thermal stability z-score (lipoamide; [1]) of 0.182, a thermal stability z-score (lipoamide; arsenate co-treatment: none) of 0.154 and a thermal stability z-score (potassium arsenate) of -0.0126.

With COBLL1 (UniProt Q53SF7) the thermal stability z-score (lipoamide; [1]) was 0.248, the thermal stability z-score (lipoamide; arsenate co-treatment: none) was 0.43 and the thermal stability z-score (potassium arsenate) was -0.608.

COG1 (UniProt Q8WTW3) was tested, and the thermal stability z-score (lipoamide; [1]) was -0.441, the thermal stability z-score (lipoamide; arsenate co-treatment: none) was -0.42 and the thermal stability z-score (potassium arsenate) was 0.183.

In the case of COG2 (UniProt Q14746), the thermal stability z-score (lipoamide; [1]) is reported as 0.0711, the thermal stability z-score (lipoamide; arsenate co-treatment: none) is reported as -0.137 and the thermal stability z-score (potassium arsenate) is reported as 0.6.

For COG3 (UniProt Q96JB2), the thermal stability z-score (lipoamide; [1]) was 1.88, the thermal stability z-score (lipoamide; arsenate co-treatment: none) was 2.29 and the thermal stability z-score (potassium arsenate) was 2.95.

In the case of COG4 (UniProt Q9H9E3), the thermal stability z-score (lipoamide; [1]) is reported as -0.919, the thermal stability z-score (lipoamide; arsenate co-treatment: none) is reported as -1.44 and the thermal stability z-score (potassium arsenate) is reported as -0.419.
